Test results as given in patent US20160228452A1, “TREATMENT OF METABOLIC DISEASES BY INHIBTION OF HTR2A OR HTR3” (Korea Advanced Institute of Science and Technology, priority 2014, published 2016).
“Also recorded” adds a separate entry of the source.

Tests used:
[1] = Blood chemistry analysis (serum cholesterol, LDL cholesterol, FFA, leptin by ELISA); format: in vivo; details: PCPA 300 mg/kg, 6 weeks, HFD-fed mice vs HFD-fed control
Description: Tissue serotonin was extracted by homogenization in extraction buffer containing 0.02% ascorbic acid in 0.1 M perchloric acid followed by centrifugation. The serotonin levels in the supernatants were measured via the liquid chromatography-mass spectrometry method. Serum leptin (Enzo Life Science, Farmingdale, N.Y., USA), LDL-cholesterol (Waco), and FFA (Biovision, Mountain View, Calif., USA) were measured using enzyme-linked immunosorbent assay (ELISA) kits.

[2] = tested on: genes involved in lipid metabolism and thermogenesis; test: Real-time RT-PCR of mouse adipose tissues; format: in vivo, mice
Description: Total RNA was extracted from the mouse tissues or cell lines using TRIzol reagent (Invitrogen) according to the manufacturer's protocol. After TURBO DNase (Invitrogen) treatment, 2 μg of total RNA was used to generate complementary DNA with Superscript III reverse transcriptase (Invitrogen). To analyze gene expression, real-time PCR was performed with a ViiA 7 Real-Time PCR system (Applied Biosystems) and the Power SYBR Green PCR master mix (Applied Biosystems). Relative quantification was based on the ddCt method, and ActB was used as an endogenous control (internal control).

[3] = tested on: BAT; test: 18F-FDG PET/CT glucose utilization of BAT; format: in vivo; details: PCPA-treated HFD-fed mice vs HFD-fed control
Description: (§1) To measure the metabolic rate, the mice were housed individually in an eight-chamber, open-circuit Oxymax/CLAMS (Columbus Instruments Comprehensive Lab Animal Monitoring System) system as previously described^33. Each mouse was assessed for 72 h in the fed state to determine their metabolic rates. PET imaging was performed using a microPET R4 scanner (Concorde Microsystems, Siemens) as previously described^34.

[4] = Metabolic analysis by indirect calorimetry (Oxymax/CLAMS); format: in vivo, mice
Description: as §1

[5] = intraventricular injection, reference 19; cited from earlier work
[6] = Glucose tolerance test and insulin tolerance test; format: in vivo, mice; details: PCPA-treated HFD-fed mice vs HFD-fed control
Description: For the glucose tolerance tests, the mice were administered 2 g/kg D-glucose in PBS after overnight fasting. For the insulin tolerance tests, the mice were intraperitoneally injected with insulin (0.75 U/kg) after being fasted for 4 h. The blood glucose levels in blood samples obtained from tail veins 0, 15, 30, 45, 60, 90 and 120 min after injection were measured using a Gluco DR Plus glucometer (Allmedicus).

[7] = tested on: eWAT, iWAT and BAT; test: Histological analysis of adipose tissues (H&E, Ucp1/Plin1 immunohistochemistry, TEM); format: in vivo, mice
Description: Inguinal, epididymal and interscapular adipose tissues were harvested, fixed in 4% (w/v) paraformaldehyde in PBS and embedded in paraffin. Then, 5-μm-thick tissue sections were deparaffinized, rehydrated and used for hematoxylin and eosin (H&E) staining, immunohistochemistry and immunofluorescence. For antigen retrieval, the slides were submerged in 10 mM sodium citrate (pH 6.0) and heated to 95° C. for 20 minutes. Visualization of Ucp1 and Plin1 was performed using a VECTASTAIN ABC Kit (PK-4001, Vector Laboratories, Burlingame, Calif., USA) according to the manufacturer's instructions. Briefly, the slides were incubated with BLOXALL Blocking solution (SP-6000, Vector Laboratories) followed by incubation with 2% normal goat serum for 30 min at room temperature to block non-specific binding. Sections were incubated with primary antibody against Ucp1 (ab10983, Abcam) or Plin1 (ab3526, Abcam) for 1 h at room temperature followed by 30-min incubation with a species-specific, biotinylated secondary antibody. The slides were incubated with Vectastain ABC-AP reagent for 30 min and then incubated with […] substrate (DAB, SK-4100, Vector Laboratories) for visualization. The stains and antibodies used for the immunofluorescence staining included BODIPY (BODIPY®493/503, Invitrogen), anti-5HT (ab10385, Abcam) and DAPI (D9542, Sigma). Electron microscopy images of BAT were obtained by transmission electron microscopy (Tecnai Spirit TEM) as previously described^35. Briefly, the BAT was first fixed with 2.5% glutaraldehyde, and after fixation, ultra-thin sections were cut, stained with uranyl acetate and lead citrate and then examined under an electron microscope.

[8] = High-fat-diet-induced obesity in mice: growth curves, body weight and eWAT mass; format: in vivo; details: PCPA 300 mg/kg daily i.p., 10 weeks, HFD-fed mice vs HFD-fed control
Source text: The generation of Tph^flox/flox mice, Adipoq-cre mice, and aP2-CreERT2 mice has previously been reported^17,30,31. C57BL/6J mice, Htr3a-targeted KO mice (B6.129X1-Htr3a^tm1jul/J, Htr3a KO) and leptin-deficient ob/ob mice (B6.V-Lep^ob/J) were purchased from the Jackson Laboratory (Bar Harbor, Me., USA). To create the adipose tissue-specific Tph1 KO mice, Tph1^flox/flox mice were crossed with Adipoq-Cre mice (Tph1 FKO mice) and aP2-CreERT2 mice (Tph1 AFKO mice). The mice were housed in climate-controlled, specific pathogen-free (SPF) barrier facilities under a 12-h light-dark cycle, and chow and water were provided ad libitum. The Institutional Animal Care and Use Committee at the Korea Advanced Institute of Science and Technology approved the experimental protocols for this study. Htr3a KO mice and Tph1^flox/flox mice were backcrossed with C57BL/6J mice for more than 10 generations. Cre-recombination of 6-week-old Tph1 AFKO mice was induced by intraperitoneal (IP) injection of 5 doses of 2 mg of tamoxifen (Sigma) for 1 week. We fed male mice (aged 8˜10 weeks) either on SCD (standard chow diet; 12% fat calories, Purina Laboratory Rodent Diets 38057) or HFD (60% fat calories, Research Diets D12492). PBS or 300 mg/kg PCPA was administered as a daily intraperitoneal injection. LP-533401 was dissolved in PEG-400 and 5% dextrose (40:60 ratio). Vehicle or 30 mg/kg LP-533401 was administered daily with a feeding needle. We randomly divided C57BL/6J mice into 2-4 groups. For transgenic mice, we compared data between KO mice and their WT littermates. No blinding was done.

[9] = PCPA-treated vs control mice, HFD for 6 weeks

N[C@@H](Cc1ccc(Cl)cc1)C(=O)O (racemic) [PCPA, p-chlorophenylalanine]
blood level of LDL cholesterol [1]: decreased | blood level of free fatty acid (FFA) [1]: decreased; also recorded: reduced | blood level of leptin [1]: decreased; also recorded: reduced | serum cholesterol [1]: reduced | Dio2 mRNA level in BAT ([2]; PCPA 300 mg/kg, 6 weeks): highest increase | thermogenic gene expression in BAT ([2]; PCPA 300 mg/kg, 6 weeks): increased thermogenic gene expression | Dio2 mRNA level in iWAT ([2]; PCPA-treated mice fed an HFD): increased | Ucp1 mRNA level in iWAT ([2]; PCPA-treated mice fed an HFD): increased | expression of lipogenic (triglyceride storage) genes in eWAT ([2]; PCPA-treated vs control mice, both SCD and HFD): suppressed expression | glucose (18F-FDG) uptake into BAT [3]: significantly increased glucose uptake | metabolic rates (metabolic cage data) on standard chow diet ([4]; PCPA 300 mg/kg for 6 weeks vs vehicle, SCD-fed mice): did not affect the metabolic rates; also recorded: no significant differences | O2 consumption [4, 9]: increased | carbon dioxide production (VCO2) [4, 9]: increased carbon dioxide production | energy expenditure [4, 9]: increased energy expenditure | heat production [4, 9]: increased | appetite [5]: reduce appetite | body weight [5]: increase body weight | glucose tolerance ([6]; 2 g/kg glucose after overnight fasting): improved glucose tolerance | insulin sensitivity / insulin resistance ([6]; insulin 0.75 U/kg after 4 h fasting): improved; also recorded: reduced insulin resistance | iWAT adipocyte size, HFD vs SCD within PCPA-treated mice ([7]; 18-week-old PCPA-treated mice, HFD for 10 weeks compared with PCPA-treated mice fed an SCD): decreased adipocyte size | number and size of mitochondria in BAT (TEM) ([7]; HFD-fed mice with PCPA treatment for 6 weeks): increased size and number of mitochondria | eWAT cellular structure / cell damage (Plin1 staining) ([7]; PCPA 300 mg/kg for 6 weeks, SCD or HFD): normal cellular structures; also recorded: No gross cell damage was observed | browning of iWAT (Ucp1-expressing multilocular cells) ([7]; PCPA-treated mice): brown adipocyte-like multilocular cells that expressed Ucp1 were observed | density of the cristae in BAT mitochondria ([7]; PCPA-treated mice): increased | iWAT adipocyte size ([7]; PCPA-treated mice): decreased | multilocular adipocytes in BAT ([7]; PCPA-treated mice, HFD): increased multilocular adipocytes | BAT lipid droplet size ([7]; PCPA-treated vs control BAT, regardless of diet): decreased lipid droplet sizes | eWAT adipocyte size ([7]; PCPA-treated vs control mice, SCD or HFD): decreased adipocyte size; also recorded: did not increase the adipocyte size | body weight gain [8]: decreased weight gain; also recorded: reduction in body weight gain | eWAT mass [8]: reduced eWAT mass; also recorded: decreased eWAT
